Experimental findings from patent US20180085330A1, “Dose Adjustment” (AbbVie Inc., priority 2016, published 2018) are described below.

A short description of data set [1]: Drug-drug interaction evaluation in overseas subjects, Phase 1 clinical studies (Example 6). Format: in vivo, human (overseas subjects). To be noted: coadministered with glecaprevir and pibrentasvir. The protocol:
The drug-drug interaction (DDI) of glecaprevir and pibrentasvir was characterized from Phase 1 clinical studies in overseas subjects. DDI was evaluated between glecaprevir and pibrentasvir and drug transporter and CYP probes (CYP3A4, CYP1A2, CYP2D6, CYP2C9 and CYP2C19) and concomitant medications used in HCV-infected subjects including anti-retroviral (ARVs), calcium-channel blockers (CCB), angiotensin-receptor blockers (ARBs), opioids and tacrolimus. Safety and tolerability were assessed throughout the studies.

A short description of data set [2]: Potentially significant drug interactions identified in drug interaction studies (effect on concentration). Format: in vivo, human. Conditions: concentration of the concomitant drug when coadministered with glecaprevir and pibrentasvir. An excerpt:
Table 1 provides the effect of coadministration of glecaprevir and pibrentasvir on concentrations of concomitant drugs and the effect of concomitant drugs on glecaprevir and pibrentasvir.

Data set [3] is described as follows: Drug interaction studies: pharmacokinetic parameters of coadministered drug in the presence of glecaprevir/pibrentasvir. In kind it is in vivo, human. Conditions: digoxin 0.5 mg single dose; GLE/PIB 400/120 mg once daily. As to the method: Drug interaction studies were performed with glecaprevir/pibrentasvir and other drugs that are likely to be coadministered and with drugs commonly used as probes for pharmacokinetic interactions.

A short description of data set [4]: Digoxin single dose with multiple doses of glecaprevir and pibrentasvir (Example 3). Format: in vivo, human (adult male and female subjects). An excerpt:
This Example assessed pharmacokinetics, safety, and tolerability of multiple doses of glecaprevir and pibrentasvir with a single dose of digoxin. Adult male and female subjects in general good health (N=12) were enrolled in the study.

Where [5] appears, read: digoxin 0.5 mg single dose with glecaprevir 400 mg QD + pibrentasvir 120 mg QD.
Where [6] appears, read: digoxin 0.5 mg single dose, glecaprevir 400 mg QD + pibrentasvir 120 mg QD.

`C[C@H]1O[C@@H](O[C@H]2[C@@H](O)C[C@H](O[C@H]3[C@@H](O)C[C@H](O[C@H]4CC[C@@]5(C)[C@H](CC[C@@H]6[C@@H]5C[C@@H](O)[C@]5(C)[C@@H](C7=CC(=O)OC7)CC[C@]65O)C4)O[C@@H]3C)O[C@@H]2C)C[C@H](O)[C@@H]1O` [digoxin]: in data set [1], the AUC increase came out at 48%. In addition, in data set [2], the “Effect on Concentration” value is recorded as “↑ digoxin”. Further, in data set [3], the “Central Value Ratio (90% CI) AUC” value was determined as 1.48 and the “Central Value Ratio (90% CI) Cmax” value was 1.72. For the same compound, in data set [4] (setting [5]), the “AUCinf higher when coadministered, compared to digoxin alone” value is listed as 48% and the “Cmax higher when coadministered, compared to digoxin alone” value was 72%. For the same compound, in data set [4] (setting [6]), the “fraction of digoxin eliminated in urine, difference with and without glecaprevir and pibrentasvir” value is at most 18%; the “renal clearance, difference with and without glecaprevir and pibrentasvir” value is given as at most 18%.
